Test: MALDI imaging mass spectrometry of dermal tissues adjacent to the implant
Format: in vivo, C57BL/6 J mice
Experimental: The used implants, the surrounding capsule, and the encasing dermal tissue were removed as a block in accordance with ISO 10993-6 guidelines, processed and stored, as described elsewhere. Briefly, the capsule was cut longitudinally and rolled open, taking care not to disrupt the architecture of the tissue or to damage the used implant. A portion of the tissue specimen was placed into 4% paraformaldehyde solution (phosphate-buffered at pH 7.2), and stored at 4 °C, for histopathology and two other portions were flash-frozen in liquid nitrogen for drug concentration analysis as well as for drug spatial distribution analysis by MALDI-IMS (vide infra).
Frozen mouse tissue specimens were shipped to Vanderbilt University on dry ice and stored at − 80 °C prior to use. Tissues were removed from the − 80 °C freezer and placed in a − 20 °C cryostat (CM 1900, Leica Biosystems, Buffalo Grove, IL) and sectioned. Tissue samples that had been prepared via removal of the used implant were affixed to the cryostat chuck with optimal cutting temperature (OCT) polymer and were cut on the cryostat into 12 µm thick sections for imaging mass spectrometry and H&E staining.
Tissue samples that still contained the implant in place were embedded in OCT prior to sectioning. In order to minimize the artifactual signal from the TAF powder after sectioning (the act of the cryostat blade cutting through an intact implant distributed residual TAF powder that still remained in the used implant onto the surrounding tissue section), house vacuum was used to remove visible TAF powder, followed by lightly running nitrogen gas over the plate to remove any additional loose powder from the slide.
The tissue sections were thaw-mounted onto indium-tin oxide coated glass slides for imaging (Delta Technologies, Ltd, Loveland, CO). The tissue sections were left to dry for at least 15 min in a desktop vacuum desiccator prior to matrix application. […] For 9AA, four passes were applied at 85 °C in a crisscross pattern, with a 700 mm min^-1 stage velocity, 2 mm track spacing, and 0.15 mL min^-1 flow rate. For DHB the same method was used, except eight passes were applied and the stage velocity was 1300 mm min^-1.
Flash-frozen dermal tissue samples collected adjacent to the TAF implants and sectioned were analyzed with a linear ion trap mass spectrometer equipped with a MALDI source and a nitrogen laser (LTQ XL, Thermo Scientific, Waltham, MA). The structures of compounds of interest are shown in Scheme 1. Targeted MS/MS methods were optimized for each compound using authentic samples as standards, with the final parameters shown in Appendix A under Supplementary Information. Pseudo-selected reaction monitoring mode was used for imaging by isolating precursor ions with a 1 Da window, fragmenting them, and acquiring full product ion mass spectra at each pixel. TFV, TFV-MP, and TFV-DP were analyzed in negative ion mode, while TAF, Metabolite X, and Metabolite Y were analyzed in positive ion mode. In most cases, after imaging, the matrix was removed and the tissue section that had been imaged was H&E stained for better image registration with tissue morphology. Standard images were acquired at either 50 or 100 µm spatial resolution. Reconstructed ion images were generated in ImageQuest software (Thermo Scientific, Waltham, MA) by plotting the intensity of the diagnostic fragment ion or ions as a function of location across the tissue surface.

Detection by MALDI-IMS in dermal tissue samples during implant TAF delivery (all medicated specimens): detected
MALDI-IMS signal and localization with implant in situ (low-releasing (0.23 mg d^-1) implants, Day 14, 100 µm resolution): most abundant signals
Structure (SMILES): C[C@H](Cn1cnc2c(N)ncnc21)OCP(=O)(O)O [TFV, tenofovir]
Spatial distribution in dermal tissue sections (MALDI-IMS) (high-releasing (0.58 mg d^-1) implants, D3–D28): distributed homogeneously throughout the samples

From article PMC9114338 (Scientific Reports, 2022)
